Data published in PubChem BioAssay (NCI).
Values joined by “and” are separate entries in the source; they are usually repeats but may differ in a detail not shown here. Equal values may be shown once.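 Grown in 96-well plates, cells were treated for 48 hours with each compound at five concentrations. Insufficient inhibition: endpoint recorded as highest concentration tested. The concentration for 50% growth inhibition is given as GI50. At the TGI there is no net growth.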

Key:
Test in all cases: NCI anticancer screen, dose series, 48 h
786-0 renal = tested on: 786-0 renal
HT29 colon = tested on: HT29 colon
LOX IMVI melanoma = tested on: LOX IMVI melanoma
MALME-3M melanoma = tested on: MALME-3M melanoma
NCI-H460 lung = tested on: NCI-H460 lung
NCI-H522 lung = tested on: NCI-H522 lung
SF-268 CNS = tested on: SF-268 CNS
SNB-19 CNS = tested on: SNB-19 CNS
SR leukemia = tested on: SR leukemia
UACC-62 melanoma = tested on: UACC-62 melanoma
UO-31 renal = tested on: UO-31 renal
MCF7 breast = tested on: MCF7 breast
MDA-MB-435 = tested on: MDA-MB-435
SNB-75 CNS = tested on: SNB-75 CNS
T-47D breast = tested on: T-47D breast
K-562 leukemia = tested on: K-562 leukemia

SMILES: CN(OC(=O)CC(=O)c1ccccc1)C(=O)Cc1ccccc1
- TGI (786-0 renal): > 100 µM
- TGI (HT29 colon): > 100 µM
- TGI (LOX IMVI melanoma): > 100 µM
- TGI (MALME-3M melanoma): > 100 µM
- TGI (NCI-H460 lung): > 100 µM
- TGI (NCI-H522 lung): > 100 µM
- TGI (SF-268 CNS): > 100 µM
- TGI (SNB-19 CNS): > 100 µM
- TGI (SR leukemia): > 100 µM
- TGI (UACC-62 melanoma): > 100 µM
- TGI (UO-31 renal): > 100 µM

SMILES: [N-]=[N+]=NC1(c2ccccc2)C(=O)c2cccc3c4ccccc4n(c23)C1=O (stereo unspecified)
- TGI (786-0 renal): > 100 µM
- TGI (HT29 colon): 50.8 µM
- TGI (LOX IMVI melanoma): > 100 µM
- TGI (MALME-3M melanoma): > 100 µM
- TGI (MCF7 breast): > 100 µM
- TGI (MDA-MB-435): 92.8 µM
- TGI (NCI-H460 lung): > 100 µM
- TGI (NCI-H522 lung): > 100 µM
- TGI (SF-268 CNS): > 100 µM
- TGI (SNB-19 CNS): > 100 µM
- TGI (SNB-75 CNS): > 100 µM
- TGI (T-47D breast): > 100 µM
- TGI (UACC-62 melanoma): > 100 µM
- TGI (UO-31 renal): > 100 µM

SMILES: CCCCC1=C(C(=O)N2CCOCC2)C2(OCCO2)C1Cl (stereo unspecified)
- TGI (786-0 renal): > 100 µM
- TGI (HT29 colon): 78.6 µM
- TGI (LOX IMVI melanoma): > 100 µM
- TGI (MALME-3M melanoma): > 100 µM
- TGI (MCF7 breast): > 100 µM
- TGI (MDA-MB-435): 67.8 µM
- TGI (NCI-H522 lung): 99.3 µM
- TGI (SF-268 CNS): > 100 µM
- TGI (SNB-19 CNS): > 100 µM
- TGI (SNB-75 CNS): > 100 µM
- TGI (T-47D breast): > 100 µM
- TGI (UACC-62 melanoma): > 100 µM
- TGI (UO-31 renal): > 100 µM

SMILES: CC[C@@]1(O)C(=O)OCc2c1cc1n(c2=O)Cc2c-1nc1ccccc1c2C=Nc1ccc(N[C@@H]2c3cc4c(cc3[C@@H](c3cc(OC)c(O)c(OC)c3)[C@H]3C(=O)OC[C@@H]32)OCO4)cc1
- TGI (786-0 renal): 0.329 µM
- GI50 (HT29 colon): 0.364 µM and 0.104 µM
- TGI (HT29 colon): > 100 µM
- TGI (K-562 leukemia): 19.3 µM and 10.3 µM
- GI50 (MALME-3M melanoma): 0.676 µM and 0.155 µM
- GI50 (MDA-MB-435): 0.295 µM and 0.188 µM
- TGI (MDA-MB-435): 12.5 µM and > 100 µM
- TGI (NCI-H522 lung): > 100 µM
- TGI (SF-268 CNS): > 100 µM
- TGI (SNB-19 CNS): > 100 µM
- GI50 (SNB-75 CNS): 0.0498 µM and < 0.0169 µM
- TGI (SR leukemia): 28.2 µM
- TGI (UO-31 renal): 1.52 µM

SMILES: COc1c2c(c(OC)c3c(=O)cc(C/C(=N/NC(=O)C[n+]4ccccc4)C(=O)Nc4cc(C)ccc4C)oc13)OCO2
- TGI (786-0 renal): > 100 µM
- TGI (HT29 colon): > 100 µM
- TGI (K-562 leukemia): > 100 µM
- TGI (LOX IMVI melanoma): > 100 µM
- TGI (MALME-3M melanoma): > 100 µM
- TGI (NCI-H460 lung): > 100 µM
- TGI (NCI-H522 lung): > 100 µM
- TGI (SF-268 CNS): > 100 µM
- TGI (SNB-19 CNS): > 100 µM
- TGI (SNB-75 CNS): > 100 µM
- TGI (UACC-62 melanoma): > 100 µM
- TGI (UO-31 renal): > 100 µM

SMILES: COC1=C(OC)C(=O)c2cc(SC)c(=O)c(SC)cc2C1=O
- TGI (786-0 renal): 35.2 µM
- TGI (HT29 colon): > 100 µM
- TGI (K-562 leukemia): 33.3 µM
- TGI (LOX IMVI melanoma): 16.6 µM
- TGI (NCI-H460 lung): > 100 µM
- TGI (NCI-H522 lung): 34.9 µM
- TGI (SF-268 CNS): 28.3 µM
- TGI (SNB-19 CNS): 60.7 µM
- TGI (SNB-75 CNS): 28.1 µM
- TGI (SR leukemia): 22.7 µM
- TGI (UACC-62 melanoma): 4.45 µM
- TGI (UO-31 renal): 40.5 µM

SMILES: COc1ccc(-c2cc(-c3ccccc3)c3c(n2)-c2ccccc2NC(=O)C3)cc1
- TGI (786-0 renal): > 100 µM
- TGI (HT29 colon): > 100 µM
- TGI (K-562 leukemia): 8.64 µM
- TGI (LOX IMVI melanoma): > 100 µM
- TGI (MALME-3M melanoma): 94.1 µM
- TGI (MCF7 breast): > 100 µM
- TGI (MDA-MB-435): > 100 µM
- TGI (NCI-H460 lung): > 100 µM
- TGI (SF-268 CNS): > 100 µM
- TGI (SNB-19 CNS): > 100 µM
- TGI (SNB-75 CNS): 37.8 µM
- TGI (T-47D breast): > 100 µM
- TGI (UACC-62 melanoma): > 100 µM
- TGI (UO-31 renal): > 100 µM

SMILES: CCOC(=O)CCN1C(=O)c2ccc(NC(=O)C(=O)O)cc2S1(=O)=O
- TGI (786-0 renal): > 100 µM
- TGI (HT29 colon): > 100 µM
- TGI (K-562 leukemia): > 100 µM
- TGI (LOX IMVI melanoma): > 100 µM
- TGI (MALME-3M melanoma): > 100 µM
- TGI (MCF7 breast): > 100 µM
- TGI (MDA-MB-435): > 100 µM
- TGI (NCI-H460 lung): > 100 µM
- TGI (NCI-H522 lung): > 100 µM
- TGI (SNB-19 CNS): > 100 µM
- TGI (SNB-75 CNS): > 100 µM
- TGI (SR leukemia): > 100 µM
- TGI (UACC-62 melanoma): > 100 µM
- TGI (UO-31 renal): > 100 µM

SMILES: O=c1[nH]nc(Cc2ccccc2)n1N=C1CCCCC1
- TGI (786-0 renal): > 100 µM
- TGI (HT29 colon): > 100 µM
- TGI (K-562 leukemia): > 100 µM
- TGI (LOX IMVI melanoma): > 100 µM
- TGI (MALME-3M melanoma): > 100 µM
- TGI (MCF7 breast): > 100 µM
- TGI (MDA-MB-435): > 100 µM
- TGI (NCI-H460 lung): > 100 µM
- TGI (NCI-H522 lung): > 100 µM
- TGI (SF-268 CNS): > 100 µM
- TGI (SNB-19 CNS): > 100 µM
- TGI (T-47D breast): > 100 µM
- TGI (UACC-62 melanoma): > 100 µM
- TGI (UO-31 renal): > 100 µM

SMILES: Cc1ccc([N+](=O)[O-])cc1S(=O)(=O)Nc1ccc(C2=NOC(c3ccccc3)C2)cc1 (stereo unspecified)
- TGI (786-0 renal): 35.6 µM
- TGI (HT29 colon): 43.8 µM
- TGI (K-562 leukemia): 5.14 µM
- TGI (LOX IMVI melanoma): 24.3 µM
- TGI (MALME-3M melanoma): 68.2 µM
- TGI (MCF7 breast): 16.5 µM
- TGI (NCI-H460 lung): 29.1 µM
- TGI (NCI-H522 lung): 30.1 µM
- TGI (SF-268 CNS): > 100 µM
- TGI (SNB-19 CNS): 55.5 µM
- TGI (SNB-75 CNS): 70.3 µM
- TGI (SR leukemia): 12.1 µM
- TGI (T-47D breast): 51.1 µM
- TGI (UACC-62 melanoma): 18.3 µM
- TGI (UO-31 renal): 72.1 µM

SMILES: N#CC12CCC(O)C(CC1)C2=O (stereo unspecified)
- TGI (786-0 renal): > 100 µM
- TGI (HT29 colon): > 100 µM
- TGI (K-562 leukemia): > 100 µM
- TGI (LOX IMVI melanoma): 39.3 µM
- TGI (MALME-3M melanoma): > 100 µM
- TGI (NCI-H460 lung): > 100 µM
- TGI (NCI-H522 lung): > 100 µM
- TGI (SF-268 CNS): > 100 µM
- TGI (SNB-19 CNS): > 100 µM
- TGI (SNB-75 CNS): > 100 µM
- TGI (SR leukemia): 77.3 µM
- TGI (UACC-62 melanoma): > 100 µM
- TGI (UO-31 renal): > 100 µM

SMILES: CNc1nc2c(C)ccc3nc(N(C)C)nc-3c2n1C
- TGI (786-0 renal): > 10 µM
- TGI (HT29 colon): > 10 µM
- TGI (K-562 leukemia): > 10 µM
- TGI (MALME-3M melanoma): > 10 µM
- TGI (MCF7 breast): > 10 µM
- TGI (MDA-MB-435): > 10 µM
- TGI (NCI-H460 lung): > 10 µM
- TGI (NCI-H522 lung): > 10 µM
- TGI (SF-268 CNS): > 10 µM
- TGI (SNB-19 CNS): > 10 µM
- TGI (SNB-75 CNS): > 10 µM
- TGI (T-47D breast): > 10 µM
- TGI (UO-31 renal): > 10 µM

SMILES: O=c1ccc(-c2ccc(-n3ccnc3)cc2)nn1CCO
- TGI (786-0 renal): > 100 µM
- TGI (HT29 colon): > 100 µM
- TGI (MALME-3M melanoma): > 100 µM
- TGI (MCF7 breast): > 100 µM
- TGI (MDA-MB-435): > 100 µM
- TGI (NCI-H460 lung): > 100 µM
- TGI (NCI-H522 lung): > 100 µM
- TGI (SF-268 CNS): > 100 µM
- TGI (SNB-19 CNS): > 100 µM
- TGI (SNB-75 CNS): > 100 µM
- TGI (SR leukemia): > 100 µM
- TGI (UACC-62 melanoma): > 100 µM
- TGI (UO-31 renal): > 100 µM
